Measurements as given in patent US12391683B2, “Therapeutic compounds and methods” (Actio Biosciences, Inc., priority 2022, dated 2025).

Key:
Assay type in all cases: cell-based
TRPV2 channels = target: T1, TRPV2 channels (Homo sapiens, UniProt Q9Y5S1); test: TRP Family FLIPR Assay, TRPV2; settings: HEK293 cells (transient)
T1 construct: expressed in transfected cells; host or cells: HEK293 (transient)
T1 sequence (Q9Y5S1 1-764): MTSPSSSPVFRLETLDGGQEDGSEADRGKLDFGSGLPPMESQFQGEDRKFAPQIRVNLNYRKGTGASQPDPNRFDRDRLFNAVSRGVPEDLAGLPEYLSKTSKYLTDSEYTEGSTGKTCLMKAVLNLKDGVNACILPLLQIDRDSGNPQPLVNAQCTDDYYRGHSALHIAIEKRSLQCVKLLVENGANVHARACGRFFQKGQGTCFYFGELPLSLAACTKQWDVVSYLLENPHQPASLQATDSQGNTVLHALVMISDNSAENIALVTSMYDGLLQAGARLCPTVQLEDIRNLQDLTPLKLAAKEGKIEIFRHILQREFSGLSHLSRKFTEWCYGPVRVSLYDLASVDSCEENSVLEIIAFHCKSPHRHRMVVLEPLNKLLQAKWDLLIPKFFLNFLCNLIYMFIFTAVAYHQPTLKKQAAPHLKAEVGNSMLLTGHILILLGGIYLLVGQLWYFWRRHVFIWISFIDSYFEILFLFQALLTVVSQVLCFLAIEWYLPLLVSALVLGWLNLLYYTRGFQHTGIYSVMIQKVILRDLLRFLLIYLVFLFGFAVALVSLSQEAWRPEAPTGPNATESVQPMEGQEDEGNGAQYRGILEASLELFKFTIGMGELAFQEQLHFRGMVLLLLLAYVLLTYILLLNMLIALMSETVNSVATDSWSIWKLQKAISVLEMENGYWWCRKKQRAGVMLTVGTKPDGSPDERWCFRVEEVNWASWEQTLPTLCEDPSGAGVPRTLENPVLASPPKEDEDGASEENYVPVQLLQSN
Procedure: (§1) The compound of Example 5 was tested for selectivity against a panel of Human TRP family ion channels in a TRP Family FLIPR Assay as described below. • 1. TRPC3 channels (human TRPC3 variant 1 gene, expressed in HEK293 cells). • 2. TRPC4 channels (human TRPC4 gene, expressed in HEK293 cells). • 3. TRPC5 channels (human TRPC5 gene, expressed in HEK293 cells). • 4. TRPC6 channels (human TRPC6 gene, expressed in HEK293 cells). • 5. TRPM2 channels (human TRPM2 gene, transiently expressed in HEK293 cells). • 6. TRPM3 channels (human TRPM3 gene, transiently expressed in HEK293 cells). • 7. TRPM4 channels (human TRPM4 gene, expressed in CHO cells). • 8. […]
(§2) Data acquisition was performed via the FLIPR Control software supplied with the FLIPR System (MDS-AT) and data was analyzed using Microsoft Excel (Microsoft Corp., Redmond, WA) or GraphPad Prism. […]
(§3) [formula] where Base is the response at low concentrations of test article, Max is the maximum response at high concentrations, xhalf the EC50, or IC50, the concentration of test article producing either half-maximal activation or inhibition, and rate is the Hill coefficient. […] No assumptions about the fit parameters was made; the fit parameters were determined by the algorithm.
(§4) The effect of each test article was evaluated at eight (8) concentrations: 0.003, 0.01, 0.03, 0.1, 0.3, 1, 3 and 10 μM, n≤4 wells/concentration). […]

TRPM2 channels = target: T2, TRPM2 channels (Homo sapiens, UniProt O94759); test: TRP Family FLIPR Assay, TRPM2; settings: HEK293 cells (transient)
T2 construct: expressed in transfected cells; host or cells: HEK293 (transient)
T2 sequence (O94759 whole entry): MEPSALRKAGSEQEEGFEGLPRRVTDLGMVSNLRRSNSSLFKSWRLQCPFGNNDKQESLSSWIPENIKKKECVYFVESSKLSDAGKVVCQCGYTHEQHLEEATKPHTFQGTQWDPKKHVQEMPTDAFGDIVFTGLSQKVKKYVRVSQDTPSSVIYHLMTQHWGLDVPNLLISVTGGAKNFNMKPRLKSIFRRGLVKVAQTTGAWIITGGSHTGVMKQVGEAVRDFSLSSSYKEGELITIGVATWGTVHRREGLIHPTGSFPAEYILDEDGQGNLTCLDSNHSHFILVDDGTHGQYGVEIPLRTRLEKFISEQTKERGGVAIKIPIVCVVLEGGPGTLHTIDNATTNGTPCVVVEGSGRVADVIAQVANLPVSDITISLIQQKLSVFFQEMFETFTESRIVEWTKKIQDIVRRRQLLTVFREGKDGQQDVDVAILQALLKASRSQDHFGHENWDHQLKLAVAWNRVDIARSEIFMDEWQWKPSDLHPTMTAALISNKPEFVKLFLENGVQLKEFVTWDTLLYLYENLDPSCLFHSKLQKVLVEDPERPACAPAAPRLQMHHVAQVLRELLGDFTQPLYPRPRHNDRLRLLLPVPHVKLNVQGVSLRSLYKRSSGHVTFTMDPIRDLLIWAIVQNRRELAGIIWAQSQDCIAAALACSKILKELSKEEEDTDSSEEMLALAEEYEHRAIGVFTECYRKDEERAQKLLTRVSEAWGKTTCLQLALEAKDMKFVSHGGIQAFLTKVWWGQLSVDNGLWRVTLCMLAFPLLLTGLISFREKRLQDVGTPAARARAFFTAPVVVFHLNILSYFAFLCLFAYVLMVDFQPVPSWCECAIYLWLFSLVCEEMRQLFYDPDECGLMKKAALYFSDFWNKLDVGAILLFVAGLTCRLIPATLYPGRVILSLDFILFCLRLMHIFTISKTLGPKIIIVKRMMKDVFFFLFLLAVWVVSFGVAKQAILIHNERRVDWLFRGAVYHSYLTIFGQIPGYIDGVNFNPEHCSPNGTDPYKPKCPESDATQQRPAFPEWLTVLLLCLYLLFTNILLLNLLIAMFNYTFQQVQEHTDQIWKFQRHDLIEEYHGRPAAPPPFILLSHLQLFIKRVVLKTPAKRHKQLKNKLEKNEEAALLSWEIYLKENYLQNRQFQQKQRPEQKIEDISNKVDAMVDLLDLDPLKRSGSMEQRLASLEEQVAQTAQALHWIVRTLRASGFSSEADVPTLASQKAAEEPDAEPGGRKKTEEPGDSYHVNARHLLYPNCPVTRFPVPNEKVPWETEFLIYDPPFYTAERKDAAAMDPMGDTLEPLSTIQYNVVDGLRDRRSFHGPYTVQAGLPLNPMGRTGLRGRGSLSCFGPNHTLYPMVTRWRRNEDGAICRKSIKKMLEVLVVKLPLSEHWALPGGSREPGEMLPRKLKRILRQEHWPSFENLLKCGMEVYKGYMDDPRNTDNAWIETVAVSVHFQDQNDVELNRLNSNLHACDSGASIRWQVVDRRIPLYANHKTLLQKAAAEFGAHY
Procedure: as §1, §2, §3, §4

Human TRPV4 = Human TRPV4 (Homo sapiens, UniProt Q9HBA0); test: TRP Family FLIPR Assay, TRPV4; design: expressed in transfected cells; host or cells: CHO; settings: CHO cells
Chain of Human TRPV4 (Q9HBA0 whole entry): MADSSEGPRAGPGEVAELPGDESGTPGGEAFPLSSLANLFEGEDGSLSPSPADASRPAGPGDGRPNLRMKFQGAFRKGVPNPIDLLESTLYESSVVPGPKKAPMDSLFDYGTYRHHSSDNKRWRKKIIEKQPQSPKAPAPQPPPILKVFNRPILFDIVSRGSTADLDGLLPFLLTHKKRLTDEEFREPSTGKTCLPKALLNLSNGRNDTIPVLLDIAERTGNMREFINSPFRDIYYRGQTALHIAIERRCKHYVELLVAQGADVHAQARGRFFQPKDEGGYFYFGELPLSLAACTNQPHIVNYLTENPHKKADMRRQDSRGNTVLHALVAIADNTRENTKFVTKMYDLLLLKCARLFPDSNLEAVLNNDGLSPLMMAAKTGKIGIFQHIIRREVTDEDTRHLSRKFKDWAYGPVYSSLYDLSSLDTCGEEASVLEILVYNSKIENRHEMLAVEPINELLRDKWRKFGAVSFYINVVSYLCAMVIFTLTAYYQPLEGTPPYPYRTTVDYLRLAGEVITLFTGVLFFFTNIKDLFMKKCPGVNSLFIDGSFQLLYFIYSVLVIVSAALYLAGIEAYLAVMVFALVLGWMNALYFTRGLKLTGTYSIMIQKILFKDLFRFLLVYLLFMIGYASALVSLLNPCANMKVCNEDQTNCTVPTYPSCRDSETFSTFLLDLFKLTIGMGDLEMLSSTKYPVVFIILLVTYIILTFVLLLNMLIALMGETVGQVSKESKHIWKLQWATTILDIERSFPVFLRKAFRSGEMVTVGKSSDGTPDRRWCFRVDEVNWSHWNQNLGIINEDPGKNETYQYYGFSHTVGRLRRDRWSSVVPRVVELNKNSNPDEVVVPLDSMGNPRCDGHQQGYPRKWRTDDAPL
Procedure: as §1, §2, §3, §4

What does the source list for `CC(C)(O)c1cnc(N2C[C@@]3(CC[C@@H](F)[C@](C)(Cn4cnc5ccc(C#N)cc54)C3)OC2=O)cn1` (single isomer, unassigned) [Example 5]?
EC50 (TRPV2 channels; agonist mode, vs EMAX of cannabidiol 300 μM, read-out: EC50 hTRPV2): > 10 µM; IC50 (TRPV2 channels; antagonist mode, activated with capsaicin 100 μM, 0.003-10 μM, read-out: IC50 hTRPV2): > 10 µM; EC50 (TRPM2 channels; agonist mode, vs EMAX of H2O2 333 μM, read-out: EC50 hTRPM2): > 10 µM; IC50 (TRPM2 channels; antagonist mode, activated with 300 μM H2O2, 0.003-10 μM, read-out: IC50 hTRPM2): > 10 µM; EC50 (Human TRPV4; agonist mode, vs EMAX of GSK1016790A 3 μM, read-out: EC50 hTRPV4): > 10 µM; IC50 (Human TRPV4; antagonist mode, activated with GSK1016790A 0.3 μM, 0.003-10 μM, read-out: IC50 hTRPV4): 0.014 µM
